Assays:
[1] = test system: brains, heart, liver, muscle, and DRG of the NHPs; assay: Maturation of TTM-001 and TTM-002 capsids, NGS enrichment in NHP tissues; assay type: in vivo; details: relative to AAV9 control
Outline: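 Variants carry mutations within and flanking the loop IV peptide insert: positions 450–466 were triplet-randomized, while positions 449–466 received low-frequency point mutations. The combined pool went into two NHPs, and each peptide was scored by NGS enrichment ratio against AAV9.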

brain = assay: Matured TTM-001 and TTM-002 variants, NGS enrichment in mouse brain; assay type: in vivo, mice; details: relative to AAV9 control
[2] = NGS fold-enrichment of RNA, NHP brain
[3] = NGS fold-enrichment, NHP liver DNA
[4] = NGS fold-enrichment, NHP liver RNA
[5] = NGS fold-enrichment, NHP muscle
[6] = NGS fold-enrichment, mouse brain
[7] = NGS fold-enrichment, DRG of NHPs
[8] = NGS fold-enrichment, RNA, brain of NHPs
[9] = NGS fold-enrichment, heart of NHPs
[10] = NGS fold-enrichment, liver DNA of NHPs
[11] = NGS fold-enrichment, liver RNA of NHPs
[12] = NGS fold-enrichment, muscle of NHPs
[13] = NGS fold-enrichment, brain of mice

Sequence | Fold Enrichment relative to AAV9, Brain (NHP) [1, 2] [fold] | Fold Enrichment relative to AAV9, DRG (NHP) ([1]; NGS fold-enrichment, NHP DRG) [fold] | Fold Enrichment relative to AAV9, Heart (NHP) ([1]; NGS fold-enrichment, NHP heart) [fold] | Fold Enrichment relative to AAV9, Liver DNA (NHP) [1, 3] [fold] | Fold Enrichment relative to AAV9, Liver RNA (NHP) [1, 4] [fold] | Fold Enrichment relative to AAV9, Muscle (NHP) [1, 5] [fold] | Fold Enrichment relative to AAV9, Brain (Mouse) (brain; [6]) [fold] | Fold Enrichment relative to AAV9, DRG (NHP) [1, 7] [fold] | Fold Enrichment relative to AAV9, Brain (NHP) [1, 8] [fold] | Fold Enrichment relative to AAV9, Heart (NHP) [1, 9] [fold] | Fold Enrichment relative to AAV9, Liver DNA (NHP) [1, 10] [fold] | Fold Enrichment relative to AAV9, Liver RNA (NHP) [1, 11] [fold] | Fold Enrichment relative to AAV9, Muscle (NHP) [1, 12] [fold] | Fold Enrichment relative to AAV9, Brain (Mouse) (brain; [13]) [fold] | further results
KSINGYDSPHKSGQTQQT | 79.227 | 1.817 | 0.226 | 1.148 | 0.000 | 0.000 | 4.497 | – | – | – | – | – | – | – | –
KTINGGGSPHSKALNQQN | 77.822 | 0.000 | 0.131 | 0.274 | 0.000 | 0.000 | 69.884 | 0.000 | 77.822 | 0.131 | 0.274 | 0.000 | 0.000 | 69.884 | –
KNINGSGSPHSKAQSQQT | – | – | – | – | – | – | – | 0.000 | 73.757 | 0.000 | 0.041 | 0.000 | 0.000 | 57.432 | –
KSINESGSPHSKAQNQQI | 113.833 | 0.000 | 0.000 | 0.000 | 0.000 | 0.000 | 67.649 | 0.000 | 113.833 | 0.000 | 0.000 | 0.000 | 0.000 | 67.649 | –
KTVPNSGSPHSKAQNQQT | – | – | – | – | – | – | – | 0.000 | 62.540 | 0.000 | 0.161 | 0.202 | 0.011 | 93.793 | –
KTINGSGSPHSKALNRQS | 96.843 | 0.136 | 0.532 | 0.178 | 0.042 | 0.000 | 55.945 | 0.136 | 96.843 | 0.532 | 0.178 | 0.042 | 0.000 | 55.945 | –
KTEKMSGSPHSKAQNQQT | 169.461 | 0.523 | 0.000 | 0.158 | 0.000 | 0.000 | 109.161 | 0.523 | 169.461 | 0.000 | 0.158 | 0.000 | 0.000 | 109.161 | –
KTEHVSGSPHSKAQNQQT | – | – | – | – | – | – | – | – | – | – | – | – | – | – | Fold Enrichment relative to AAV9, Brain (NHP) ([1]; NGS fold-enrichment of matured AAV capsid variants, NHP brain, RNA): 58.228 fold; Fold Enrichment relative to AAV9, DRG (NHP) ([1]; NHP DRG): 0.000 fold; Fold Enrichment relative to AAV9, Heart (NHP) ([1]; NHP heart): 0.024 fold; Fold Enrichment relative to AAV9, Liver DNA (NHP) ([1]; NHP liver, DNA): 0.141 fold; Fold Enrichment relative to AAV9, Liver RNA (NHP) ([1]; NHP liver, RNA): 0.433 fold; Fold Enrichment relative to AAV9, Muscle (NHP) ([1]; NHP muscle): 0.000 fold; Fold Enrichment relative to AAV9, Brain (Mouse) (brain; mouse brain): 71.410 fold
KTINGSGSPHSKAHVRQT | 119.798 | 0.000 | 0.000 | 1.039 | 0.694 | 0.262 | 165.590 | 0.000 | 119.798 | 0.000 | 1.039 | 0.694 | 0.262 | 165.590 | –
